From patent US9453026B2, “ACC inhibitors and uses thereof” (Gilead Apollo, Inc., priority 2011, dated 2016)
pIC50: −log10 of the molar value.

These compounds were tested against ACC2 (Homo sapiens, UniProt O00763) (assay: In vitro ACC2 inhibition assay (ADP-Glo)). Conditions: read-out: ACC2.
Format: biochemical
Experimental: An exemplary procedure for the in vitro ACC inhibition assay, which can be used to determine the inhibitory action of compounds of the invention toward either ACC1 or ACC2, follows. The ADP-Glo™ Kinase Assay kit from Promega was used. The ADP-Glo™ Kinase Assay is a luminescent ADP detection assay to measure enzymatic activity by quantifying the amount of ADP produced during an enzyme reaction. The assay is performed in two steps; first, after the enzyme reaction, an equal volume of ADP-Glo™ Reagent is added to terminate the reaction and deplete the remaining ATP. Second, the Kinase Detection Reagent is added to simultaneously convert ADP to ATP and allow the newly synthesized ATP to be measured using a luciferase/luciferin reaction. Luminescence can be correlated to ADP concentrations by using an ATP-to-ADP conversion curve. The detailed procedure is as follows. 50 μL of the compound being tested (600 uM in DMSO) was added to a 384-well dilution plate. The compound was diluted 1:3 in succession in DMSO for each row for 11 wells. 0.5 μL ACC2 working solution was added to 384-well white Optiplate assay plate. 0.5 μL diluted compound solution in each column from step 2 to assay plate, each row containing 2 replicates. […] The plates were incubated at room temperature for 15 minutes. 5 μL substrate working solution was added to each well to initiate reaction. […] Plates were incubated at room temperature for 60 minutes. 10 μL ADP glo reagent was added. Plates were incubated at room temperature for 40 minutes. 20 μL kinase detection reagent was added.
Data for each concentration, as well as the positive and negative controls were averaged, and the standard deviation calculated. Percent inhibition was calculated by the formula: 100× (average negative control−compound)/(average negative control−average positive control). The IC50 for each compound was calculated by fitting the data with a non-linear regression equation: Y=Bottom+(Top-Bottom)/(1+10^((Log IC50−X)*HillSlope)), where X is the log of compound concentration and Y is percent inhibition.
The compound numbers correspond to the compound numbers in Table 1.

Chain of ACC2 (O00763 whole entry, species assumed): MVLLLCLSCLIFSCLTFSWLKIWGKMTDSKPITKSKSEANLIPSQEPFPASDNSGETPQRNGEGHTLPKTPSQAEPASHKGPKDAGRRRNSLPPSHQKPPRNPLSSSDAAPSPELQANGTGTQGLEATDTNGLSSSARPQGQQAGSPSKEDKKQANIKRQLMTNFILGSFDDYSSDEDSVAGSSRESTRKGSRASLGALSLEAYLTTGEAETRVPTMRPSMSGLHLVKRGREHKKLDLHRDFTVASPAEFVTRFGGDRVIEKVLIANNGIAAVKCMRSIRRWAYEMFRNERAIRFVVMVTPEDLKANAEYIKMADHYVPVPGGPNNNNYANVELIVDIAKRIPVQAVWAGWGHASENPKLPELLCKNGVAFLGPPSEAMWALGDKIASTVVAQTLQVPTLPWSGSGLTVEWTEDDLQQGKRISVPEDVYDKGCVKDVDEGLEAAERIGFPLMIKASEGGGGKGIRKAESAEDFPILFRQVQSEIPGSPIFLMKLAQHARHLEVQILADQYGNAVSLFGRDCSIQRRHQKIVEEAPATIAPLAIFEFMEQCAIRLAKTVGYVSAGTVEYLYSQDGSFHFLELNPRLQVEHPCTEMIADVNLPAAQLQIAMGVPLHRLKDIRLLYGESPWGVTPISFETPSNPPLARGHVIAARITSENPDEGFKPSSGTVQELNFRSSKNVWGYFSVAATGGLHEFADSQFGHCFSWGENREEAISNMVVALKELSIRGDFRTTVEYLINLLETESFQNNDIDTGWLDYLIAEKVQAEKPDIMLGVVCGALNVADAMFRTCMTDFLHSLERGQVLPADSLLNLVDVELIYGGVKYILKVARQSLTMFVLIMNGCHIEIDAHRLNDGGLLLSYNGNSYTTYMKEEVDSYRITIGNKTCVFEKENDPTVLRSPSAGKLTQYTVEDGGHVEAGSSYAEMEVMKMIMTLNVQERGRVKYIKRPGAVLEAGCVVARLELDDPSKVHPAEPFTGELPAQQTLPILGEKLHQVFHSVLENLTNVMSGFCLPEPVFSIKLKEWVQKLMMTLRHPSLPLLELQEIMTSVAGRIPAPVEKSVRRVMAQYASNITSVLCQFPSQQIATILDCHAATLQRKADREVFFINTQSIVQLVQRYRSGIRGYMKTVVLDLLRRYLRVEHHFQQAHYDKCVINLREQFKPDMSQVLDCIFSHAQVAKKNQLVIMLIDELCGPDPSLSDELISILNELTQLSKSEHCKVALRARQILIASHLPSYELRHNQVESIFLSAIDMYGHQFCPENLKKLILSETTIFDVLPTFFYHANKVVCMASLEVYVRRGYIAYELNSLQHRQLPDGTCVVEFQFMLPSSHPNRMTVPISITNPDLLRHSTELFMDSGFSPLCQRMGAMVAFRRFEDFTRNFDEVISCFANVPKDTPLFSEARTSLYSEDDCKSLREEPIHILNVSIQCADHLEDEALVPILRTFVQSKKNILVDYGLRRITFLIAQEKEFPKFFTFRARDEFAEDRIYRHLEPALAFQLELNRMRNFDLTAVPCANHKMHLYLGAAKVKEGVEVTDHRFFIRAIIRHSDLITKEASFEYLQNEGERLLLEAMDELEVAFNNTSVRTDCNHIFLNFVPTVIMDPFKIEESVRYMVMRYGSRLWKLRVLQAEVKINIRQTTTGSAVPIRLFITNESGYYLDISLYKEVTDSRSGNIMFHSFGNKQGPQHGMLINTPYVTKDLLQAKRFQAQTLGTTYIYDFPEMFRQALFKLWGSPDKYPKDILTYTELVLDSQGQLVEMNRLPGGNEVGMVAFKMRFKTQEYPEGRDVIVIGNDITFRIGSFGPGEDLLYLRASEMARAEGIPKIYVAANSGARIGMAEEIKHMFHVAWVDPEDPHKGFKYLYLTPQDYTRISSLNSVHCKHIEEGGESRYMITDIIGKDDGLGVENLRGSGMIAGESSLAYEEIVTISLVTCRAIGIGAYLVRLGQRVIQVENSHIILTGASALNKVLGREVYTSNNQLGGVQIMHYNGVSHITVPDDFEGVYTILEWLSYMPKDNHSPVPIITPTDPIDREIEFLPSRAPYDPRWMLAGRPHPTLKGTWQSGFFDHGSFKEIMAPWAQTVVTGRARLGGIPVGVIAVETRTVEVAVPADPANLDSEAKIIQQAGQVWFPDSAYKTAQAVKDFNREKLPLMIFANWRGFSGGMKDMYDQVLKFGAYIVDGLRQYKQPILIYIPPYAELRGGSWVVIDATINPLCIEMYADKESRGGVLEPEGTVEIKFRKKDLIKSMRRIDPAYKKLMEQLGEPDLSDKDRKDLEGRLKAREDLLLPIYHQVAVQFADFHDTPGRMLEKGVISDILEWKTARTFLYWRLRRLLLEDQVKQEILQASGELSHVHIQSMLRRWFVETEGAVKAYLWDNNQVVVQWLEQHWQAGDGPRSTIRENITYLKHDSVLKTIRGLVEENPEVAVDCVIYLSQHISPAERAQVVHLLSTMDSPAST

Row | pIC50 | Structure (SMILES)
1 | 4.70 to 5.30 | CCOC(=O)c1sc2c(c1C)c(=O)n(CC#N)c(=O)n2CCc1ccccc1 [I-43]
2 | 4.70 to 5.30 | CCOC(=O)c1sc2c(c1C)c(=O)n(CC(=O)O)c(=O)n2CCc1ccc(I)cc1 [I-53, 2-[6-(ethoxycarbonyl)-1-[2-(4-iodophenyl)ethyl]-5-methyl-2,4-dioxo-1H,2H,3H,4H-thieno[2,3-d]pyrimidin-3-yl]acetic acid]
3 | > 5.30 | CCOC(=O)c1sc2c(c1C(F)(F)F)c(=O)n(CC(=O)O)c(=O)n2CCc1ccccc1 [I-94, 2-[6-(ethoxycarbonyl)-2,4-dioxo-1-(2-phenylethyl)-5-(trifluoromethyl)-1H,2H,3H,4H-thieno[2,3-d]pyrimidin-3-yl]acetic acid]
4 | 4.30 to 4.70 | Cc1c(-n2ccnc2)sc2c1c(=O)n(C(C)(C)C(=O)O)c(=O)n2CCc1ccccc1 [I-118, 2-[6-(1H-imidazol-1-yl)-5-methyl-2,4-dioxo-1-(2-phenylethyl)-1H,2H,3H,4H-thieno[2,3-d]pyrimidin-3-yl]-2-methylpropanoic acid]
5 | > 6.00 | Cc1c(-c2ncco2)sc2c1c(=O)n(CC#N)c(=O)n2C[C@H](OC(C)C)c1ccccc1 [I-142, 2-(1-((R)-2-Isopropoxy-2-phenylethyl)-5-methyl-6-(oxazol-2-yl)-2,4-dioxo-1,2-dihydrothieno[2,3-d]pyrimidin-3(4H)-yl)acetonitrile]
6 | > 7.00 | CCOc1ccccc1[C@H](Cn1c(=O)n(C(C)(C)C(=O)O)c(=O)c2c(C)c(-c3ncco3)sc21)OC1CCOCC1 [I-183, 2-[1-[(2R)-2-(2-ethoxyphenyl)-2-(oxan-4-yloxy)ethyl]-5-methyl-6-(1,3-oxazol-2-yl)-2,4-dioxo-1H,2H,3H,4H-thieno[2,3-d]pyrimidin-3-yl]-2-methylpropanoic acid]
7 | > 5.30 | CCOC(=O)c1sc2c(c1C)c(=O)n(CC(=O)O)c(=O)n2CC(OC)c1ccccc1 (stereo not drawn) [I-67, 2-[6-(ethoxycarbonyl)-1-(2-methoxy-2-phenylethyl)-5-methyl-2,4-dioxo-1H,2H,3H,4H-thieno[2,3-d]pyrimidin-3-yl]acetic acid]
8 | > 5.30 | COc1ccccc1[C@@H](Cn1c(=O)n(C(C)(C)C(=O)O)c(=O)c2c(C)c(-c3ncco3)sc21)OC1COC1 [I-262, (S)-2-(1-(2-(2-methoxyphenyl)-2-(oxetan-3-yloxy)ethyl)-5-methyl-6-(oxazol-2-yl)-2,4-dioxo-1,2-dihydrothieno[2,3-d]pyrimidin-3(4H)-yl)-2-methylpropanoic acid]

The remaining lines, values behind:

Row | Structure (SMILES) | pIC50
9 | Cc1c(-c2ncco2)sc2c1c(=O)n(C(C)(C)C(=O)O)c(=O)n2C[C@H](O[C@H]1CC[C@H](N)CC1)c1ccccc1 [I-166, 2-(1-((R)-2-(((1r,4R)-4-aminocyclohexyl)oxy)-2-phenylethyl)-5-methyl-6-(oxazol-2-yl)-2,4-dioxo-1,2-dihydrothieno[2,3-d]pyrimidin-3(4H)-yl)-2-methylpropanoic acid] | > 6.00
10 | Cc1c(-c2ncco2)sc2c1c(=O)n(C(C)(C)C#N)c(=O)n2C[C@H](OC(C)C)c1ccccc1 [I-154, 2-methyl-2-[5-methyl-6-(1,3-oxazol-2-yl)-2,4-dioxo-1-[(2R)-2-phenyl-2-(propan-2-yloxy)ethyl]-1H,2H,3H,4H-thieno[2,3-d]pyrimidin-3-yl]propanenitrile] | > 6.00
11 | CCOC(=O)c1sc2c(c1C)c(=O)n(C(C)C(=O)O)c(=O)n2CCc1ccccc1 (stereo not drawn) [I-56, 2-[6-(ethoxycarbonyl)-5-methyl-2,4-dioxo-1-(2-phenylethyl)-1H,2H,3H,4H-thieno[2,3-d]pyrimidin-3-yl]propanoic acid] | > 5.30
12 | Cc1c(-c2ncco2)sc2c1c(=O)n(C(C)(C)C(=O)O)c(=O)n2C[C@H](OC1CCC(F)(F)CC1)c1ccccc1 [I-155, 2-[1-[(2R)-2-[(4,4-difluorocyclohexyl)oxy]-2-phenylethyl]-5-methyl-6-(1,3-oxazol-2-yl)-2,4-dioxo-1H,2H,3H,4H-thieno[2,3-d]pyrimidin-3-yl]-2-methylpropanoic acid] | > 6.00
13 | Cc1c(-c2ncco2)sc2c1c(=O)n(C(C)(C)C(=O)O)c(=O)n2C[C@H](OC(=O)N1CC(O)C1)c1ccccc1 [I-230, 2-[1-[(2R)-2-[(3-hydroxyazetidin-1-yl)carbonyloxy]-2-phenylethyl]-5-methyl-6-(1,3-oxazol-2-yl)-2,4-dioxo-1H,2H,3H,4H-thieno[2,3-d]pyrimidin-3-yl]-2-methylpropanoic acid] | > 5.30
14 | COC(=O)c1sc2c(c1C)c(=O)n(CCO)c(=O)n2CCc1c(F)cccc1F [I-25] | < 4.30
15 | CCOC(=O)c1sc2c(c1C)c(=O)n(CCO)c(=O)n2C(C)Cc1ccccc1 (stereo not drawn) [I-36, ethyl 3-(2-hydroxyethyl)-5-methyl-2,4-dioxo-1-(1-phenylpropan-2-yl)-1H,2H,3H,4H-thieno[2,3-d]pyrimidine-6-carboxylate] | 4.30 to 4.70
16 | Cc1c(-c2ncco2)sc2c1c(=O)n(C(C)(C)C(=O)O)c(=O)n2C[C@H](O[C@@H](C)CO)c1ccccc1 [I-185, 2-[1-[(2R)-2-[[(2S)-1-hydroxypropan-2-yl]oxy]-2-phenylethyl]-5-methyl-6-(1,3-oxazol-2-yl)-2,4-dioxo-1H,2H,3H,4H-thieno[2,3-d]pyrimidin-3-yl]-2-methylpropanoic acid] | > 6.00
17 | CCOC(=O)c1sc2c(c1C)c(=O)n(C[C@@H](C)O)c(=O)n2CCc1ccccc1 [I-81, ethyl 3-[(2R)-2-hydroxypropyl]-5-methyl-2,4-dioxo-1-(2-phenylethyl)-1H,2H,3H,4H-thieno[2,3-d]pyrimidine-6-carboxylate] | 4.70 to 5.30
18 | CCOC(=O)c1sc2c(c1C)c(=O)n(CCO)c(=O)n2Cc1ccc2ccccc2c1 [I-16, ethyl 3-(2-hydroxyethyl)-5-methyl-1-(naphthalen-2-ylmethyl)-2,4-dioxo-1H,2H,3H,4H-thieno[2,3-d]pyrimidine-6-carboxylate] | < 4.30
19 | CCOC(=O)c1sc2c(c1C)c(=O)n(CC(=O)O)c(=O)n2Cc1cc2ccccc2[nH]1 [I-88, 2-[6-(ethoxycarbonyl)-1-(1H-indol-2-ylmethyl)-5-methyl-2,4-dioxo-1H,2H,3H,4H-thieno[2,3-d]pyrimidin-3-yl]acetic acid] | < 4.30
20 | CCOC(=O)c1sc2c(c1C)c(=O)n(CC(=O)OC(C)(C)C)c(=O)n2CCc1ccccc1 [I-8] | 4.70 to 5.30
21 | CCOC(=O)c1sc2c(c1C)c(=O)n(CCO)c(=O)n2CCc1ccccc1F [I-23, ethyl 1-[2-(2-fluorophenyl)ethyl]-3-(2-hydroxyethyl)-5-methyl-2,4-dioxo-1H,2H,3H,4H-thieno[2,3-d]pyrimidine-6-carboxylate] | 4.30 to 4.70
22 | Cc1csc2c1c(=O)n(CC(=O)O)c(=O)n2CCc1ccccc1 [I-63] | 4.30 to 4.70
23 | Cc1c(-c2ncco2)sc2c1c(=O)n(C(C)(C)C(=O)O)c(=O)n2C[C@H](OCC(C)(C)O)c1ccccc1 [I-175, 2-[1-[(2R)-2-(2-hydroxy-2-methylpropoxy)-2-phenylethyl]-5-methyl-6-(1,3-oxazol-2-yl)-2,4-dioxo-1H,2H,3H,4H-thieno[2,3-d]pyrimidin-3-yl]-2-methylpropanoic acid] | > 6.00
24 | CCOC(=O)c1sc2c(c1C)c(=O)n(CCO)c(=O)n2CCc1ccc2ccccc2c1 [I-30, ethyl 3-(2-hydroxyethyl)-5-methyl-1-[2-(naphthalen-2-yl)ethyl]-2,4-dioxo-1H,2H,3H,4H-thieno[2,3-d]pyrimidine-6-carboxylate] | < 4.30
